Reference: EPA's ToxRefDB 2

How the values were obtained:
mouse [1] = conditions: Carcinogenicity, b6c3f1, Oral, Gavage/Intubation, dose end: 102 week, group: systemic
rat [2] = conditions: Carcinogenicity, fischer, Oral, Gavage/Intubation, dose end: 102 week, group: systemic
rat [3] = conditions: Subchronic oral toxicity in rodents, fischer, Gavage/Intubation, dose end: 13 week, group: systemic
mouse [4] = conditions: Subchronic oral toxicity in rodents, b6c3f1, Gavage/Intubation, dose end: 13 week, group: systemic
primate = conditions: Subchronic oral toxicity in nonrodent, Gavage/Intubation, dose end: 91 day, group: systemic, systemic / in life observation / body weight / body weight + systemic / in life observation / clinical signs / [other] + systemic / in life …
rabbit = conditions: Prenatal developmental toxicity study; Oral; Gavage/Intubation; dose end: 19 GD; group: maternal; systemic / in life observation / clinical signs / abnormal feces + systemic / in life observation / clinical signs / red or crusty deposits …
rat [5] = conditions: Sub-acute repeat dose toxicity; Oral; Gavage/Intubation; dose end: 14 day; group: systemic; systemic / in life observation / clinical signs / ataxia + systemic / in life observation / clinical signs / urine staining - perineum + …
rat [6] = conditions: Sub-acute repeat dose toxicity; wistar; Oral; Gavage/Intubation; dose end: 7 day; group: systemic; systemic / clinical chemistry / [other] / [other] + systemic / pathology microscopic / blood / vasculitis
rat [7] = conditions: Fertility (Segment I), Oral, Gavage/Intubation, dose end: 1 generation, group: parental
rat [8] = conditions: Subchronic oral toxicity in rodents, wistar, Feed, dose end: 6 month, group: systemic
mouse [9] = conditions: Prenatal developmental toxicity study, cd1, Oral, Gavage/Intubation, dose end: 16 GD
mouse [10] = conditions: Combined chronic toxicity/carcinogenicity; other; Oral; Feed; dose end: 101 week; group: systemic; systemic / pathology microscopic / liver / enlarged vacuoles + systemic / pathology microscopic / liver / focal cellular change + systemic…
dog = conditions: Chronic toxicity, beagle, Oral, Capsule, dose end: 52 week, group: systemic
rat [11] = conditions: Multigenerational reproductive toxicity study, wistar, Oral, Feed, dose end: 2 generation
rat [12] = conditions: Subchronic oral toxicity in rodents, wistar, Feed, dose end: 3 month, group: systemic
rat [13] = conditions: Peri- and post-natal toxicity study (Segment III), wistar, Oral, [Not Specified], dose end: 21 PND
mouse [14] = conditions: Prenatal developmental toxicity study, cd1, Oral, Gavage/Intubation, dose end: 16 GD, group: maternal
rat [15] = conditions: Combined chronic toxicity/carcinogenicity, other, Oral, Feed, dose end: 104 week, group: systemic
mouse [16] = conditions: Subchronic oral toxicity in rodents, Feed, dose end: 90 day, group: systemic, systemic / pathology microscopic / liver / clear cell focus + systemic / pathology microscopic / liver / [other] + systemic / clinical …
[17] = systemic / pathology microscopic / kidney / cytomegaly + systemic / pathology microscopic / thyroid gland / hyperplasia
[18] = systemic / pathology microscopic / kidney / cytomegaly + systemic / pathology microscopic / thyroid gland / hyperplasia + systemic / …
[19] = systemic / pathology microscopic / intestine large / adenocarcinoma + systemic / pathology microscopic / intestine large / polyp adenomatous…
[20] = systemic / pathology microscopic / kidney / cytomegaly + systemic / pathology microscopic / liver / necrosis
[21] = systemic / in life observation / body weight / body weight + systemic / in life observation / mortality / mortality + systemic / pathology …
[22] = systemic / in life observation / body weight / body weight + systemic / pathology microscopic / liver / granuloma + systemic / pathology …
[23] = systemic / in life observation / clinical signs / abnormal feces + systemic / in life observation / clinical signs / convulsions + systemic…
[24] = systemic / in life observation / clinical signs / convulsions + systemic / in life observation / clinical signs / salivation
[25] = systemic / clinical chemistry / glucose / glucose
[26] = systemic / clinical chemistry / glucose / glucose + systemic / clinical chemistry / lactic acid dehydrogenase (ldh) / lactic acid …
[27] = group: developmental, developmental / developmental malformation / bone / supernumerary
[28] = group: developmental, developmental / developmental malformation / bone / supernumerary + developmental / developmental malformation / bone / [other] + …
[29] = group: maternal, reproductive / reproductive performance / estrous cycle / corpora lutea
[30] = systemic / clinical chemistry / alkaline phosphatase (alp/alk) / alkaline phosphatase (alp/alk) + systemic / in life observation / body …
[31] = group: offspring, developmental / offspring survival late / viability index / viability index + developmental / offspring survival late / lactation index / …
[32] = group: offspring, developmental / offspring survival late / viability index / viability index + reproductive / offspring survival early / dead fetuses / dead …
[33] = group: parental, systemic / in life observation / body weight / body weight gain
[34] = group: parental, systemic / in life observation / body weight / body weight gain + systemic / in life observation / body weight / body weight + systemic / …
[35] = group: reproductive, reproductive / reproductive performance / gestational length / gestational length + reproductive / reproductive performance / dystocia / …
[36] = systemic / organ weight / adrenal gland / absolute + systemic / organ weight / adrenal gland / relative to body weight + systemic / …
[37] = group: developmental, developmental / offspring survival late / viability index / viability index
[38] = group: maternal, reproductive / offspring survival early / dead fetuses / dead fetuses + reproductive / offspring survival early / litter size / litter size
[39] = group: parental, systemic / in life observation / food consumption / food consumption + systemic / in life observation / mortality / mortality
[40] = systemic / in life observation / body weight / body weight gain + systemic / in life observation / body weight / dam weight + systemic / in …
[41] = systemic / pathology microscopic / thyroid gland / neoplasm nos + systemic / in life observation / body weight / body weight + systemic / in…

With `ClC(Cl)Br` [Bromodichloromethane] the LOAEL (mouse [1]; [17]) was 25 mg/kg/day, the NOAEL (mouse [1]; [17]) was under 25 mg/kg/day and the LEL (mouse [1]; [18]) was 25 mg/kg/day. The NEL (mouse [1]; [18]) was under 25 mg/kg/day, the LOAEL (rat [2]; [19]) was over 100 mg/kg/day and the NOAEL (rat [2]; [19]) was at least 100 mg/kg/day. It also gave an LEL (rat [2]; [20]) of 50 mg/kg/day, an NEL (rat [2]; [20]) of under 50 mg/kg/day and an LEL (rat [3]; systemic / in life observation / body weight / body weight) of 150 mg/kg/day. The LOAEL (rat [3]; [21]) was over 300 mg/kg/day, the NEL (rat [3]; [21]) was 75 mg/kg/day and the NOAEL (rat [3]; [21]) was at least 300 mg/kg/day. The LEL (mouse [4]; systemic / in life observation / body weight / body weight + systemic / pathology microscopic / kidney / necrosis) was 100 mg/kg/day, the LOAEL (mouse [4]; [22]) was over 400 mg/kg/day and the NOAEL (mouse [4]; [22]) was at least 400 mg/kg/day.

In the case of `Cc1cc2c3c(c1)C(c1ccccc1)=N[C@@H](NC(=O)c1ccncc1)C(=O)N3CC2` [CI-1018], the LEL (primate) is reported as 740 mg/kg/day, the LOAEL (primate) is reported as over 740 mg/kg/day and the NEL (primate) is reported as under 740 mg/kg/day. The NOAEL (primate) was at least 740 mg/kg/day, the LOAEL (rabbit) was over 100 mg/kg/day and the NEL (rabbit) was 10 mg/kg/day. It also gave an NOAEL (rabbit) of at least 100 mg/kg/day, an LEL (rat [5]) of 1000 mg/kg/day and an LOAEL (rat [5]) of over 1000 mg/kg/day. The NEL (rat [5]) was 300 mg/kg/day, the NOAEL (rat [5]) was at least 1000 mg/kg/day and the LEL (rat [6]) was 375 mg/kg/day. For the same compound, the LOAEL (rat [6]) was over 750 mg/kg/day, the NEL (rat [6]) was 75 mg/kg/day and the NOAEL (rat [6]) was at least 750 mg/kg/day. The LOAEL (rat [7]; [23]) was over 300 mg/kg/day, the NOAEL (rat [7]; [23]) was at least 300 mg/kg/day and the LEL (rat [7]; [24]) was 30 mg/kg/day. The NEL (rat [7]; [24]) was under 30 mg/kg/day.

For `C=CCOC(Cn1ccnc1)c1ccc(Cl)cc1Cl` (stereo not drawn) [Imazalil], the LEL (rat [8]; [25]) was 1.25 mg/kg/day, the NEL (rat [8]; [25]) was under 1.25 mg/kg/day and the LOAEL (rat [8]; [26]) was 20 mg/kg/day. For the same compound, the NOAEL (rat [8]; [26]) was 5 mg/kg/day, the LEL (mouse [9]; [27]) was 80 mg/kg/day and the LOAEL (mouse [9]; [27]) was 80 mg/kg/day. It also gave an NEL (mouse [9]; [28]) of 40 mg/kg/day, an NOAEL (mouse [9]; [28]) of 40 mg/kg/day and an LEL (mouse [9]; [29]) of 10 mg/kg/day. The NEL (mouse [9]; [29]) was under 10 mg/kg/day, the LOAEL (mouse [9]; group: maternal, systemic / in life observation / body weight / body weight gain + systemic / in life observation / food consumption / food consumption) was 40 mg/kg/day and the NOAEL (mouse [9]; group: maternal, systemic / in life observation / body weight / body weight gain + systemic / in life observation / food consumption / food consumption + …) was 10 mg/kg/day. For the same compound, the LEL (mouse [10]) was 28 mg/kg/day, the LOAEL (mouse [10]) was 28 mg/kg/day and the NEL (mouse [10]) was 6.67 mg/kg/day. It also gave an NOAEL (mouse [10]) of 6.67 mg/kg/day, an LOAEL (dog; [30]) of 20 mg/kg/day and an NEL (dog; [30]) of 1.25 mg/kg/day. It also gave an NOAEL (dog; [30]) of 2.5 mg/kg/day, an LEL (dog; systemic / organ weight / liver / absolute + systemic / organ weight / liver / relative to body weight) of 2.5 mg/kg/day and an LEL (rat [11]; [31]) of 5 mg/kg/day. It also gave an NEL (rat [11]; [31]) of under 5 mg/kg/day, an LOAEL (rat [11]; [32]) of 80 mg/kg/day and an NOAEL (rat [11]; [32]) of 20 mg/kg/day. It also gave an NEL (rat [11]; [33]) of 20 mg/kg/day, an NOAEL (rat [11]; [33]) of 20 mg/kg/day and an LEL (rat [11]; [34]) of 80 mg/kg/day. It also gave an LOAEL (rat [11]; [34]) of 80 mg/kg/day, an LOAEL (rat [11]; group: reproductive, reproductive / reproductive performance / gestational length / gestational length) of 80 mg/kg/day and an LEL (rat [11]; [35]) of 80 mg/kg/day. It also gave an NEL (rat [11]; [35]) of 20 mg/kg/day, an NOAEL (rat [11]; [35]) of 20 mg/kg/day and an LOAEL (rat [12]; [36]) of 37.9 mg/kg/day. For the same compound, the NOAEL (rat [12]; [36]) was 18.7 mg/kg/day, the NEL (rat [12]; systemic / organ weight / liver / absolute + systemic / organ weight / adrenal gland / absolute + systemic / organ weight / adrenal gland / …) was 90.1 mg/kg/day and the LEL (rat [13]; [37]) was 80 mg/kg/day. For the same compound, the LOAEL (rat [13]; [37]) was over 80 mg/kg/day, the NEL (rat [13]; [37]) was 20 mg/kg/day and the NOAEL (rat [13]; [37]) was at least 80 mg/kg/day. For the same compound, the LEL (rat [13]; [38]) was 80 mg/kg/day, the LOAEL (rat [13]; [38]) was over 80 mg/kg/day and the NEL (rat [13]; [38]) was 20 mg/kg/day. For the same compound, the NOAEL (rat [13]; [38]) was at least 80 mg/kg/day, the LEL (rat [13]; [39]) was 80 mg/kg/day and the LOAEL (rat [13]; [39]) was over 80 mg/kg/day. It also gave an NEL (rat [13]; [39]) of 20 mg/kg/day, an NOAEL (rat [13]; [39]) of at least 80 mg/kg/day and an LOAEL (mouse [14]; systemic / in life observation / body weight / body weight gain) of 80 mg/kg/day. The LEL (mouse [14]; [40]) was 80 mg/kg/day, the NEL (mouse [14]; [40]) was 40 mg/kg/day and the NOAEL (mouse [14]; [40]) was 40 mg/kg/day. For the same compound, the LEL (rat [15]; systemic / pathology microscopic / liver / pigmentation) was 14.6 mg/kg/day, the NEL (rat [15]; systemic / pathology microscopic / liver / pigmentation + systemic / clinical chemistry / alanine aminotransferase (alt/sgpt) / alanine …) was 3.6 mg/kg/day and the LOAEL (rat [15]; [41]) was 65.8 mg/kg/day. The NOAEL (rat [15]; [41]) was 10.8 mg/kg/day, the LEL (mouse [16]) was 38.6 mg/kg/day and the LOAEL (mouse [16]) was 38.6 mg/kg/day. For the same compound, the NEL (mouse [16]) was 9.5 mg/kg/day and the NOAEL (mouse [16]) was 9.5 mg/kg/day.
